Biological target: T1, human chemokine receptor 2 isoform B (Homo sapiens, UniProt P41597)
T1 construct: host or cells: CHOK1-CCR2B-A5 (CHO-K1) cells
T1 sequence (P41597 1-360 isoform P41597-2): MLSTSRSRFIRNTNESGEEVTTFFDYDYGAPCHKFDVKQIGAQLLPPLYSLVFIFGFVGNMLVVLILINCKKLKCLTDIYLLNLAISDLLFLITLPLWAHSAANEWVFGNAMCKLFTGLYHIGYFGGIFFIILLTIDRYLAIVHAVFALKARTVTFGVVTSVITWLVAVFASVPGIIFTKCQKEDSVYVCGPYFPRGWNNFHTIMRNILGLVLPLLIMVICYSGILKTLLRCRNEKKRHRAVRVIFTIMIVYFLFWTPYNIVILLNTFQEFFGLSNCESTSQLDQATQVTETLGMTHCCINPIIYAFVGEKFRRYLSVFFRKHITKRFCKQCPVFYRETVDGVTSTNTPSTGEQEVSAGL
Assay: Calcium mobilization assay
Format: cell-based
Conditions: Ca mobilization assay for CCR2; CHOK1-CCR2B-A5 cells; antagonist activity against 20 nM MCP-1; FLIPR, Fluo-4
Procedure: Calcium Mobilization Assay
CHOK1-CCR2B-A5 cells (from Euroscreen) stably overexpressing the human chemokine receptor 2 isoform B were cultured in Nutrient Hams F12 medium supplemented with 5% FBS, 100 U/ml penicillin, 100 μg/ml streptomycin, 400 μg/ml G418 and 5 μg/ml puromycin.
For the assay cells were grown overnight in 384-well black clear flat bottom polystyrene plates (Costar) at 37° C. at 5% CO2. After washing with DMEM, 20 mM Hepes, 2.5 mM probenecid, 0.1% BSA (DMEM assay buffer) cells were loaded with 4 μM Fluo-4 in the same DMEM assay buffer for 2 hours at 30° C. Excess dye was removed and cells were washed with DMEM assay buffer. 384-well compound plates were prepared with DMEM assay buffer/0.5% dimethyl sulfoxide with or without various concentrations of test compounds. Usually compounds were tested for agonist and antagonist activity.
Test compounds were added to the assay plate and agonist activity was monitored as fluorescence for 80 seconds with a FLIPR (488 nm excitation; 510-570 nm emission; Molecular Devices). After 20-30 min. of incubation at 30° C., 20 nM MCP-1 (R&D; Roche) was added and fluorescence was monitored again for 80 seconds. Increases in intracellular calcium are reported as maximum fluorescence after agonist exposure minus basal fluorescence before exposure. Antagonist activity is indicated as inhibitor concentration required for 50% inhibition of specific calcium increases.

IC50 [nM] | Compound
10 | COC[C@H](CCN1CCC2(CC2)[C@H](O)C1)N1CCN(c2cccc(C(F)(F)F)c2)CCC1=O [Example 23, 4-[(S)-3-((S)-4-Hydroxy-6-aza-spiro[2.5]oct-6-yl)-1-methoxymethyl-propyl]-1-(3-trifluoromethyl-phenyl)-[4]diazepan-5-one]
90 | COC[C@H](CCN1C[C@@H](C)C[C@H](O)C1)N1CCN(c2cccc(C(F)(F)F)c2)CCC1=O [Example 24, 4-[(S)-3-((3S,5S)-3-Hydroxy-5-methyl-piperidin-1-yl)-1-methoxymethyl-propyl]-1-(3-trifluoromethyl-phenyl)-[1,4]diazepan-5-one]
70 | O=C1CCN(c2cccc(C(F)(F)F)c2)CCN1C(CO)CCCN1CCC2(CC2)[C@H](O)C1 (stereo partly drawn) [Example 27, 4-[(R,S)-4-((S)-4-Hydroxy-6-aza-spiro[2.5]oct-6-yl)-1-hydroxymethyl-butyl]-1-(3-trifluoromethyl-phenyl)-[1,4]diazepan-5-one]
400 | COCC(CCCN1CCC2(CC2)[C@H](O)C1)N1CCN(c2cccc(C(F)(F)F)c2)CCC1=O (stereo partly drawn) [Example 28, 4-[(R,S)-4-((S)-4-Hydroxy-6-aza-spiro[2.5]oct-6-yl)-t-methoxymethyl-butyl]-1-(3-trifluoromethyl-phenyl)-[1,4]diazepan-5-one]
140 | O=C1CCN(c2cccc(OC(F)(F)F)c2)CCN1C(CO)CCCN1CCC2(CC2)[C@H](O)C1 (stereo partly drawn) [Example 32, 4-[(R,S)-4-((S)-4-Hydroxy-6-aza-spiro[2.5]oct-6-yl)-1-hydroxymethyl-butyl]-1-(3-trifluoromethoxy-phenyl)-[1,4]diazepan-5-one]
930 | O=C1CCN(c2cccc(C(F)(F)F)c2)CCN1CCCN1CCC(O)(c2ccccc2)CC1 [Example 34, 4-[3-(4-Hydroxy-4-phenyl-piperidin-1-yl)-propyl]-1-(3-trifluoromethyl-phenyl)-[1,4]diazepan-5-one]
580 | CC1C(=O)N(CCCN2CCCCC2)CCN1c1cccc(OC(F)(F)F)c1 (stereo not shown) [Example 41, 3-Methyl-1-(3-piperidin-1-yl-propyl)-4-(3-trifluoromethoxy-phenyl)-piperazin-2-one]
180 | C[C@H]1C(=O)N(CCCN2CCCCC2)CCN1c1cccc(OC(F)(F)F)c1 [Example 42, (S)-3-Methyl-1-(3-piperidin-1-yl-propyl)-4-(3-trifluoromethoxy-phenyl)-piperazin-2-one]
20 | CC1C(=O)N(CCCN2CCC3(CC3)[C@H](O)C2)CCN1c1cccc(OC(F)(F)F)c1 (stereo partly drawn) [Example 44, 1-[3-((S)-4-Hydroxy-6-aza-spiro[2.5]oct-6-yl)-propyl]-3-methyl-4-(3-trifluoromethoxy-phenyl)-piperazin-2-one]
10 | C[C@H]1C(=O)N(CCCN2CCC3(CC3)[C@H](O)C2)CCN1c1cccc(OC(F)(F)F)c1 [Example 45, (S)-1-[3-((S)-4-Hydroxy-6-aza-spiro[2.5]oct-6-yl)-propyl]-3-methyl-4-(3-trifluoromethoxy-phenyl)-piperazin-2-one]
10 | COC(=O)C(CCN1CCC2(CC2)[C@H](O)C1)N1CCN(c2cccc(OC(F)(F)F)c2)C(C)C1=O (stereo partly drawn) [Example 47, 4-((S)-4-Hydroxy-6-aza-spiro[2.5]oct-6-yl)-2-[3-methyl-2-oxo-4-(3-trifluoromethoxy-phenyl)-piperazin-1-yl]-butyric acid methyl ester]
30 | CC1C(=O)N(C(CCN2CCC3(CC3)[C@H](O)C2)C(=O)O)CCN1c1cccc(OC(F)(F)F)c1 (stereo partly drawn) [Example 48, 4-((S)-4-Hydroxy-6-aza-spiro[2.5]oct-6-yl)-2-[3-methyl-2-oxo-4-(3-trifluoromethoxy-phenyl)-piperazin-1-yl]-butyric acid]
5 | CC1C(=O)N(C(CO)CCN2CCC3(CC3)[C@H](O)C2)CCN1c1cccc(OC(F)(F)F)c1 (stereo partly drawn) [Example 49, 1-[3-((S)-4-hydroxy-6-aza-spiro[2.5]oct-6-yl)-1-hydroxymethyl-propyl]-3-methyl-4-(3-trifluoromethoxy-phenyl)-piperazin-2-one]
30 | CC1C(=O)N(C(CCN2CCC3(CC3)[C@H](O)C2)C(=O)N(C)C)CCN1c1cccc(OC(F)(F)F)c1 (stereo partly drawn) [Example 50, 4-((S)-4-Hydroxy-6-aza-spiro[2.5]oct-6-yl)-N,N-dimethyl-2-[3-methyl-2-oxo-4-(3-trifluoromethoxy-phenyl)-piperazin-1-yl]-butyramide]
10 | COC(=O)C(CCN1CCC2(CC2)[C@H](O)C1)N1CCN(c2cccc(C(F)(F)F)c2)C(C)C1=O (stereo partly drawn) [Example 54, 4-((S)-4-Hydroxy-6-aza-spiro[2.5]oct-6-yl)-2-[3-methyl-2-oxo-4-(3-trifluoromethyl-phenyl)-piperazin-1-yl]-butyric acid methyl ester]
10 | CC1C(=O)N(C(CO)CCN2CCC3(CC3)[C@H](O)C2)CCN1c1cccc(C(F)(F)F)c1 (stereo partly drawn) [Example 55, 1-[3-((S)-4-Hydroxy-6-aza-spiro[2.5]oct-6-yl)-1-hydroxymethyl-propyl]-3-methyl-4-(3-trifluoromethyl-phenyl)-piperazin-2-one]
10 | COCC(CCN1CCC2(CC2)[C@H](O)C1)N1CCN(c2cccc(C(F)(F)F)c2)C(C)C1=O (stereo partly drawn) [Example 56, 1-[3-((S)-4-Hydroxy-6-aza-spiro[2.5]oct-6-yl)-1-methoxymethyl-propyl]-3-methyl-4-(3-trifluoromethyl-phenyl)-piperazin-2-one]
680 | CC1C(=O)N(CC2CCCN(C)C2)CCN1c1cccc(C(F)(F)F)c1 (stereo not shown) [Example 58, 3-Methyl-1-(1-methyl-piperidin-3-ylmethyl)-4-(3-trifluoromethyl-phenyl)-piperazin-2-one]
80 | CN(C)C(=O)[C@H](CCN1CCC2(CC2)[C@H](O)C1)N1CCN(c2ccc(Cl)c(Cl)c2)CCC1=O [Example 59, (S)-2-[4-(3,4-Dichloro-phenyl)-7-oxo-[1,4]diazepan-1-yl]-4-((S)-4-hydroxy-6-aza-spiro[2.5]oct-6-yl)-N,N-dimethyl-butyramide]
76 | CN(CCO)C(=O)[C@H](CCN1CCC2(CC2)[C@H](O)C1)N1CCN(c2ccc(Cl)c(Cl)c2)CCC1=O [Example 61, (S)-2-[4-(3,4-Dichloro-phenyl)-7-oxo-[1,4]diazepan-1-yl]-4-((S)-4-hydroxy-6-aza-spiro[2.5]oct-6-yl)-N-(2-hydroxy-ethyl)-N-methyl-butyramide]
330 | CN(C(=O)[C@H](CCN1CCC2(CC2)[C@H](O)C1)N1CCN(c2ccc(Cl)c(Cl)c2)CCC1=O)C1CC1 [Example 62, (S)—N-Cyclopropyl-2-[4-(3,4-dichloro-phenyl)-7-oxo-[1,4]diazepan-1-yl]-4-((S)-4-hydroxy-6-aza-spiro[2.5]oct-6-yl)-N-methyl-butyramide]
663 | NC(=O)[C@H](CCN1CCC2(CC2)[C@H](O)C1)N1CCN(c2ccc(Cl)c(Cl)c2)CCC1=O [Example 64, (S)-2-[4-(3,4-Dichloro-phenyl)-7-oxo-[1,4]diazepan-1-yl]-4-((S)-4-hydroxy-6-aza-spiro[2.5]oct-6-yl)-butyramide]
16 | COC(=O)[C@H](CCN1CCC2(CC2)[C@H](O)C1)N1C[C@@H](C)N(c2ccc(Cl)c(Cl)c2)CCC1=O [Example 65, (S)-2-[(R)-4-(3,4-dichloro-phenyl)-3-methyl-7-oxo-[1,4]diazepan-1-yl]-4-((S)-4-hydroxy-6-aza-spiro[2.5]oct-6-yl)-butyric acid methyl ester]
546 | COC(=O)[C@H](CCN1CCC2(CC2)[C@H](O)C1)N1C[C@H](C)N(c2ccc(Cl)c(Cl)c2)CCC1=O [Example 66, (S)-2-[(S)-4-(3,4-dichloro-phenyl)-3-methyl-7-oxo-[1,4]diazepan-1-yl]-4-((S)-4-hydroxy-6-aza-spiro[2.5]oct-6-yl)-butyric acid methyl ester]
226 | CC1C(=O)N(CCCN2CCCCC2)CCN1c1ccc(Cl)c(Cl)c1 (stereo not shown) [Example 71, 4-(3,4-Dichloro-phenyl)-3-methyl-1-(3-piperidin-1-yl-propyl)-piperazin-2-one]

Compound | IC50 [nM]
CC1C(=O)N(CCCN2CCCCC2)CCN1c1cccc(C(F)(F)F)c1 (stereo not shown) [Example 51, 3-Methyl-1-(3-piperidin-1-yl-propyl)-4-(3-trifluoromethyl-phenyl)-piperazin-2-one] | 190
C[C@H]1C(=O)N(CCCN2CCCCC2)CCN1c1cccc(C(F)(F)F)c1 [Example 52, (S)-3-Methyl-1-(3-piperidin-1-yl-propyl)-4-(3-trifluoromethyl-phenyl)-piperazin-2-one] | 130
CC1C(=O)N(CCCN2CCCCC2)CCN1c1ccc(Cl)c(C(F)(F)F)c1 (stereo not shown) [Example 70, 4-(4-Chloro-3-trifluoromethyl-phenyl)-3-methyl-1-(3-piperidin-1-yl-propyl)-piperazin-2-one] | 579

From US8138175B2, “Heterocyclyl compounds” (Hoffmann-La Roche Inc., priority 2008, dated 2012)
